Assay results published in publication PMC12197363 (Viruses, 2025).
Read-outs that look alike come from different tables or passages of the source.

Tests used:
Norovirus 3CL^pro [1] = biological target: T1, Norovirus 3CL^pro (Norovirus GII.4, UniProt P54634); test: Cell-based FlipGFP assay of 3CLpro inhibition; parameters: species or system Norovirus genotype GII.4
T1 sequence (P54634 1009-1189): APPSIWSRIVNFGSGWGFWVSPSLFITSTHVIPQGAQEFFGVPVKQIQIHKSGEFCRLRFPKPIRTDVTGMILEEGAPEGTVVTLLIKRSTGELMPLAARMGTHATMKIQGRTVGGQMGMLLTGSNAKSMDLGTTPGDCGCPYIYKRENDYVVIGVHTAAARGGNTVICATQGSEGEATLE

Norovirus 3CL^pro [2] = test: Western blot of FlipGFP cleavage; type: cell-based; settings: at higher inhibitor concentrations, compared with C139A control
c-Met = settings: quoted in Description column of Table S1; no reference given; cited from earlier work
VEGFR2 = settings: quoted in Description column of Table S1; no reference given; cited from earlier work

In the case of `O=c1[nH]c2ccccc2n1C1CCN(Cc2ccc(-c3[nH]c4cc5ncnc5cc4nc3-c3ccccc3)cc2)CC1` [Akt inhibitor VIII], the IC50 (Norovirus 3CL^pro [1]) is reported as 590 ± 120 nM.
`N#Cc1ccc(O[C@H]2CC[C@H](NC(=O)c3ccc(N4CCC(CN5CCN(c6cc7c(cc6F)C(=O)N(C6CCC(=O)NC6=O)C7=O)CC5)CC4)nn3)CC2)cc1Cl` (some centres unmarked) [Bavdegalutamide] showed an IC50 (Norovirus 3CL^pro [1]) of 970 ± 240 nM.
In the case of `O=C(Nc1cccc(-c2nc(-c3ccc(NC(=O)c4cccnc4)cc3Cl)no2)c1)Nc1ccc(NC(=O)C2CC2)c(C(F)(F)F)c1` [EGFR-IN-8], the IC50 (Norovirus 3CL^pro [1]) is reported as 290 ± 90 nM and the “Proteolytic cleavage of FlipGFP (Western blot)” value (Norovirus 3CL^pro [2]) is reported as “proteolytic cleavage was markedly reduced”.
In the case of `CC(C)C[C@H](NC(=O)OCc1ccccc1)C(=O)N[C@@H](CC1CCNC1=O)C(O)S(=O)(=O)O` (some centres unmarked) [GC376], the IC50 (Norovirus 3CL^pro [1]; HEK293T cells co-transfected with 3CLpro-FlipGFP and 3CLpro, compound added 6 h, fluorescence read 24 h post-transfection, triplicate, read-out: IC50) is reported as 2280 ± 170 nM.
`CCc1cc(Nc2nccc(-c3c(-c4ccc(OC)c(C(=O)Nc5c(F)cccc5F)c4)nc4ccccn34)n2)c(OC)cc1N1CCC(N2CCN(S(C)(=O)=O)CC2)CC1` [GSK1904529A] showed an IC50 (Norovirus 3CL^pro [1]) of 3940 ± 230 nM.
For `CN(C)C1CCN(C(=O)c2ccc(NC(=O)Nc3ccc(-c4nc(N5CCOCC5)nc(N5CCOCC5)n4)cc3)cc2)CC1` [Gedatolisib], the “Proteolytic cleavage of FlipGFP (Western blot)” value (Norovirus 3CL^pro [2]) was “proteolytic cleavage was markedly reduced”.
For `CN1CCN(C2CCN(C(=O)Nc3cc(Oc4ccc(NC(=O)C5(C(=O)Nc6ccc(F)cc6)CC5)c(F)c4)ccn3)CC2)CC1` [Golvatinib], the IC50 (c-Met) is given as 14 nM and the IC50 (VEGFR2) is given as 16 nM.
In the case of `O=C(c1ccc(Nc2nccc(-c3cc4ccccc4s3)n2)cc1)N1CCC(N2CCCC2)CC1` [IKK 16], the IC50 (Norovirus 3CL^pro [1]) is reported as 5090 ± 160 nM.
Work on `CC(=O)N1CCC(c2cc(-c3ccc(NC(=O)c4cccn(-c5ccc(F)cc5)c4=O)cc3F)c3c(N)ncnn23)CC1` [TAM-IN-2] yielded an IC50 (Norovirus 3CL^pro [1]) of 1220 ± 440 nM.
